Legend:
BaF3 = assay: Cell proliferation (CCK-8, 72 h), parental BaF3; format: cell-based; settings: Mus musculus, parental BaF3 cells
Description: (§1) In this example, human gastrointestinal stromal tumor cell line GIST-T1 (expressing wild-type C-KIT gene) (purchased from Cosmo Bio Co., Ltd. (Japan)), human gastrointestinal stromal tumor cell line GIST-T1-T670I (expressing C-KIT-T670I mutant gene) (constructed by our laboratory with CRISPR technology), mouse […] BaF3 (purchased from ATCC) were used. In addition, in this Example, mouse Tel-cKit-BaF3 (stably expressing C-KIT wild-type kinase), mouse Tel-cKit/T670I-BaF3 (stably expressing cKIT T670I mutant kinase), mouse Tel-PDGFRα-BaF3 (stably expressing PDGFRα kinase), mouse Tel-PDGFRβ-BaF3 (stably expressing PDGFRβ kinase), mouse Tel-VEGFR2-BaF3 (stably expressing VEGFR2 kinase), mouse Tel-FLT3-BaF3 (stably expressing FLT3 kinase) were also used. The above cell lines were all constructed by our laboratory. The construction method was as follows: the human C-KIT, C-KIT T670I, PDGFRα, PDGFRβ, VEGFR2, FLT3 kinase region sequences were amplified by PCR respectively and inserted into MSCV-Puro vector (purchased from Clontech) with N-terminal TEL fragment and/or NPM fragment and/or TPR fragment respectively, which was stably transferred into mouse BaF3 cells by retroviral method, and IL-3 growth factor was removed, and finally the cell lines in which protein was transferred depending on C-KIT, C-KIT/T670I, PDGFRα, PDGFRβ, VEGFR2, FLT3 were obtained. The GIST-T1-T670I (expressing C-KIT-T670I mutant gene) cell line was constructed by our laboratory. The construction method was as follows: the sgRNA targeting near the T670 site of the KIT gene was designed by the CRISPR design tool of the Zhang Feng Laboratory of the Massachusetts Institute of Technology (URL: crispr.mit.edu) and cloned into pSpCas9(BB)-2A-Puro vector (Addgene, USA); the obtained vector and a single-stranded oligonucleotide with T670I mutation near the T670 site were co-transfected into the cells, and after antibiotic selection, they were diluted and cultured in a single cell in a 96-well plate; the T670 site of the cells was sequenced and verified by the Sanger sequencing method.

TEL-cKIT-BaF3 = assay: Cell proliferation (CCK-8, 72 h), TEL-cKIT-BaF3; format: cell-based; settings: Mus musculus, BaF3 expressing wild-type C-KIT kinase
Description: as §1

TEL-cKIT/T670I-BaF3 [1] = assay: Cell proliferation (CCK-8, 72 h), TEL-cKIT/T670I-BaF3; format: cell-based; settings: Mus musculus, BaF3, 72 h, read-out: GI50 TEL-cKIT/T670I-BaF3
Description: as §1

TEL-VEGFR2-BaF3 = assay: Cell proliferation (CCK-8, 72 h), TEL-VEGFR2-BaF3; format: cell-based; settings: Mus musculus, BaF3 expressing VEGFR2 kinase
Description: as §1

TEL-FLT3-BaF3 = assay: Cell proliferation (CCK-8, 72 h), TEL-FLT3-BaF3; format: cell-based; settings: Mus musculus, BaF3 expressing FLT3 kinase
Description: as §1

GIST-T1 = assay: Cell proliferation (CCK-8, 72 h), GIST-T1; format: cell-based; settings: Homo sapiens, GISTT1, GIST-T1 (wild-type C-KIT gene)
Description: as §1

GIST-T1-T670I [2] = assay: Cell proliferation (CCK-8, 72 h), GIST-T1-T670I; format: cell-based; settings: Homo sapiens, GIST-T1-T670I (C-KIT-T670I mutant, Imatinib-resistant)
Description: as §1

TEL-cKIT/T670I-BaF3 [3] = assay: TEL-cKIT/T670I-BaF3 cell tumor transplantation mouse model; format: in vivo
Method: (§2) (1) 4-6 weeks old Bal b/c female mice were purchased from Beijing Weitong Lihua Experimental Animal Co., Ltd. and were reared in SPF-level laboratories. Drinking water and litter were sterilized by autoclaving. All operations on mice were performed under sterile conditions.
(§3) (2) On day 0, about 5×10^6 TEL-cKIT/T670I-BaF3 or 5×10^6 GIST-T1-T670I cells were injected subcutaneously on the left back of all mice, respectively.
(§4) (3) For the mouse model of TEL-cKIT/T670I-BaF3, starting from day 6, the corresponding mice were orally administered every day methyl cellulose (HKI) vehicle (5 mice); […]; sunitinib (purchased from MedChemExpress, China) at a dose of 40 mg/kg mouse weight (5 mice). For the mouse model of GIST-T1-T670I, starting from day 15, the corresponding mice were orally administered every day methyl cellulose (HKI) vehicle (5 mice); Compound 9 at a dose of 20 mg/kg, 30 mg/kg, 40 mg/kg (5 mice each); sunitinib at a dose of 40 mg/kg mouse weight (5 mice).
(§5) (4) Starting from day 6 (the mouse model of TEL-cKIT/T670I-BaF3) and day 15 (the mouse model of GIST-T1-T670I), the length/width of the subcutaneous tumors was measured with a vernier caliper every day, the body weight of the mice was recorded every day, and the effect of compound 9 on the body weight of the mice was determined respectively.
(§6) (5) The growth trend of […] tumors was calculated, with the calculation method of tumor volume: length×width×width/2 mm^3.

GIST-T1-T670I [4] = assay: GIST-T1-T670I cell tumor transplantation mouse model; format: in vivo; settings: for tumor inhibition rate: 40 mg/kg oral daily
Method: as §2, §3, §4, §5, §6

SMILES: Cc1nc(NC(=O)CN2CCN(C)CC2)sc1-c1ccc2c(/C=C/c3ccccn3)n[nH]c2c1 [Compound 9, (E)-N-(4-methyl-5-(3-(2-(pyridin-2-yl)vinyl)-1H-indazol-6-yl)thiazol-2-yl)-2-(4-methylpiperazin-1-yl)acetamide]
- GI50 (BaF3): 1.4 µM
- GI50 (TEL-cKIT-BaF3): 0.923 µM
- GI50 (TEL-cKIT/T670I-BaF3 [1]): 0.009 µM
- GI50 (TEL-VEGFR2-BaF3): 0.18 µM
- GI50 (TEL-FLT3-BaF3): 0.001 µM
- GI50 (GIST-T1): 0.019 µM
- GI50 (GIST-T1-T670I [2]): 0.039 µM
- tumor inhibition rate (TEL-cKIT/T670I-BaF3 [3]; 40 mg/kg oral daily, with increasing days of treatment): ≤ 80%
- tumor inhibition rate (TEL-cKIT/T670I-BaF3 [3]; 100 mg/kg oral daily, day 11 after administration): 100%
- effect on the body weight of mice (TEL-cKIT/T670I-BaF3 [3]; oral daily): no effect
- tumor inhibition rate (GIST-T1-T670I [4]; day 28 after administration): 84.3%
- tumor inhibition rate (GIST-T1-T670I [4]; with increasing days of treatment): ≤ 80%
- effect on the body weight of mice (GIST-T1-T670I [4]; oral daily): no effect

— patent US12162876B2, “Indazole kinase inhibitor and use thereof” (Tarapeutics Science Inc., priority 2018, dated 2024)
